Source: patent US20170303557A1, “PURIFICATION OF POLYPHENOLS” (NESTEC S.A., priority 2014, published 2017)

Test: Model study: degradation of 5-CQA and formation of its ethylester in 75% ethanolic solution (LC/MS-DAD)
Type: physicochemical
Conditions: 75% ethanol
Experimental: During the experiment 5-CQA was stored in the presence of ethanol (75% ethanolic solution) by varying the following parameters pH, temperature and time.
The process was conducted under the following conditions using 5-CQA esterification as the model.
For each trial 10 mg of 5-CQA were dissolved in 40 mL of a 75% ethanolic solution. • pH studies: The pH was adjusted to pH 1, pH 2.7 and pH 4 with hydrochloric acid (32%) and to pH 12 by using NaOH solution (4 N) and all samples were kept in a lab oven at a temperature of 80° C. for 2 hours. • Temperature studies: CQA solutions were adjusted to pH 1 with hydrochloric acid (32%) and kept for 2 hours either at room temperature, 50° C. or 80° C. in a lab oven. • Time studies: 5-CQA solutions were adjusted to pH 1 and kept at room temperature or 50° C. for 1 h, 2 h, 3 h and 36 h (RT only). • System: The analysis was performed on a LC-DAD-MS system using LCQ Deca mass spectrometer (Thermo Finnigan), with a DAD detector (Thermo Finnigan) and a Rheos HPLC system (Thermo Finnigan). • Sample Preparation: For each parameter an aliquot of the solution was diluted 1:10 and directly used for LC/MS-DAD analysis. • HPLC Method: The separation was performed at ambient temperature on a Zorbax Eclipse C18 column, 5 μm, 150*3 mm (Agilent). A binary gradient of A/B (A: 0.1% formic acid, B: methanol) was applied. • MS parameters: The Mass spectrometer used is the LCQ-Deca operated in FullScan and data dependant MS/MS mode (m/z 100-1000) for compound identification.

O=C(/C=C/c1ccc(O)c(O)c1)O[C@@H]1C[C@@](O)(C(=O)O)C[C@@H](O)[C@@H]1O [5-CQA, 5-caffeoyl quinic acid]
ester detectable as compared to the native 5-CQA (pH 1, 50° C., 2 h): Up to 40%
ester formed (pH 1, 50° C., period corresponding to desorption duration of up-scaled protocol (within first 3 h)): 30%
ester as compared to 5-CQA (pH 1, 80° C., 2 h): same amounts of the ester as compared to 5-CQA
transformation of 5-CQA into its ethylester (pH 1, 80° C., 2 h): rapid transformation of 5-CQA into its ester
5-CQA transformed into its ethylester (pH 1, RT, 2 h): only a small amount
ester formed (pH 1, room temperature, 3 h): 3%
ester formed (pH 1, room temperature, 36 h): 14%
5-CQA esterification (pH 2.7, 80° C., 2 h): significantly reduced
degradation of 5-CQA (pH 4, 80° C., 2 h): almost not degraded
degradation of 5-CQA (pH 12, 80° C., 2 h): hydrolysis of 5-CQA yielding caffeic and quinic acid
